Test results reported in PubChem BioAssay AID743479 (Broad Institute, 2014).
Inconclusive results are not listed. Active and inactive are the calls of the source.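 The calls were made as follows: active = fitted curve crosses 35% inhibition of luciferase signal below 10 µM, corrected for cell viability; inconclusive = no clear call, values can overlap the other calls; inactive = activity opposite to the expected decrease, otherwise the rest.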

Tested on: not listed separately
Assay: reduction of NR0B1-luciferase signal in A673 cells – cell-based, luciferase luminescence, dry powder, dose response (AID 743479)
Details: A673 NR0B1-luciferase reporter, viability-normalised luminescence; at 4.2 µM (top of the series)

Compound	activity change, negative = inhibition
CCN(CCO)CCCOc1ccc2c(Nc3cc(CC(=O)Nc4cccc(F)c4)[nH]n3)ncnc2c1	0.506% (inactive)

Same assay, conditions: A673 NR0B1-luciferase reporter, viability-normalised luminescence; at 6.8 µM (top of the series)

Compound	activity change, negative = inhibition
C=C([C@@H](O)[C@@H](C)O)[C@@H](OC)[C@]1(C)Cc2cc3cc(O[C@H]4CC(OC5CC(O)C(O)C(C)O5)C(O)C(C)O4)cc(O)c3c(O)c2C(=O)[C@H]1OC1CC(OC2CC(OC3CC(C)(O)C(O)C(C)O3)C(O)C(C)O2)C(O)C(C)O1 (some centres not stated)	12.4% (inactive)

Same assay, conditions: A673 NR0B1-luciferase reporter, viability-normalised luminescence; at 16 µM (top of the series)

Compound	activity change, negative = inhibition
Clc1ccc(-c2cnc3ccc(-c4ccccc4)cn23)cc1	38.6% (inactive)

Same assay, conditions: A673 NR0B1-luciferase reporter, viability-normalised luminescence; at 68 µM (top of the series)

Compound	activity change, negative = inhibition
COc1cc(Nc2ncc3c(n2)-c2ccc(Cl)cc2C(c2c(F)cccc2OC)=NC3)ccc1C(=O)O	114% (inactive)
C[C@]1(c2nc3c(C(N)=O)cccc3[nH]2)CCCN1	-14.9% (inactive)
CCCCc1ccc2nc(NC(=O)OC)[nH]c2c1	-8.52% (inactive)
COc1ccc(-c2cc(NC(C)=O)c3ncc(-c4ccc(OC)c(OC)c4)n3c2)cc1	-21.4% (inactive)
COc1ccc(C2CNC(=O)C2)cc1OC1CCCC1 (configuration not stated)	-4.33% (inactive)

Same assay, conditions: A673 NR0B1-luciferase reporter, viability-normalised luminescence; at 135 µM (top of the series)

Compound	activity change, negative = inhibition
O=P1(NCCCl)OCCCN1CCCl (configuration not stated)	11.8% (inactive)

Tested on: A673 NR0B1-luciferase reporter, viability-normalised luminescence
Assay: as above
Details: not given

Compound	AC35
COc1cc([C@@H]2c3cc4c(cc3[C@@H](O[C@@H]3O[C@@H]5CO[C@@H](C)O[C@H]5[C@H](O)[C@H]3O)[C@H]3COC(=O)[C@H]23)OCO4)cc(OC)c1O	3.01 µM
COc1cccc(C2C(C#N)=C(N)Oc3cc(N)ccc32)c1 (configuration not stated)	0.629 µM
COc1ccccc1S(=O)(=O)N1CC[C@@H]2[C@@H](CO)Nc3ccc(-c4ccc(C#N)cc4)cc3[C@@H]21	15.5 µM
COc1ccc(C2=Nn3c(nnc3-c3ccccc3Cl)SC2)cc1OC	0.69 µM
Cc1nc(Nc2ncc(C(=O)Nc3c(C)cccc3Cl)s2)cc(N2CCN(CCO)CC2)n1	18.9 µM
C[C@@]1(C(=O)Nc2ccc(F)nc2)CCCN1c1nc(Nc2cc(C3CC3)[nH]n2)c2cccn2n1	2.9 µM
COc1ccc(-c2cc(NC=O)c3ncc(-c4ccc(OC)c(OC)c4)n3c2)cc1	0.778 µM
COc1ccc(OC)c(-c2nnc3n2N=C(c2ccc(OC)c(OC)c2)CS3)c1	0.0319 µM
N#CC1=C(N)Oc2cc(N)ccc2C1c1ccc2ccccc2c1 (configuration not stated)	19.4 µM
CCC(C)(C)C(=O)O[C@H]1C[C@@H](C)C=C2C=C[C@H](C)[C@H](CC[C@@H]3C[C@@H](O)CC(=O)O3)[C@H]21	55 µM
Nc1ncnc2c1c(-c1cccc(OCc3ccccc3)c1)cn2C1CC(CN2CCCC2)C1 (configuration not stated)	17.3 µM
COc1ccc(C(=O)CC2(O)C(=O)Nc3c(Cl)ccc(Cl)c32)cc1 (configuration not stated)	3.21 µM
CN(C)c1ccc2c(c1)OC(N)=C(C#N)C2c1cccc(F)c1 (configuration not stated)	0.0309 µM
N#CC1=C(N)Oc2ccc3ccccc3c2C1c1cccc(F)c1 (configuration not stated)	0.968 µM
N#CC1=C(N)Oc2cc(N)ccc2C1c1cccc(F)c1 (configuration not stated)	1.2 µM
COc1ccc(C2=Nn3c(nnc3-c3ccccc3OC)SC2)cc1OC	0.131 µM
Cc1ccc(S(=O)(=O)N2CC[C@@H]3[C@@H](CO)Nc4ccc(-c5ccc(C#N)cc5)cc4[C@@H]32)cc1	17.2 µM
CN(C(=O)CCCOc1ccc2[nH]c(=O)ccc2c1)C1CCCCC1	49.6 µM
Cn1cc(-c2ccncc2)c(-c2ccc(OCc3ccc4ccccc4n3)cc2)n1	51.7 µM
COc1ccc(C2C(C#N)=C(N)Oc3cc(N)ccc32)cc1 (configuration not stated)	53.2 µM
N#CC1=C(N)Oc2cc(N)ccc2C1c1ccc(Cl)cc1 (configuration not stated)	43 µM
COc1ccc(NC(=O)Nc2ccc3c(c2)C(=O)N([C@@H](C)CO)C[C@H](C)[C@H](CN(C)Cc2ccc4c(c2)OCO4)O3)cc1	18.8 µM
CN1CCN(CCOc2cc(OC3CCOCC3)c3c(Nc4c(Cl)ccc5c4OCO5)ncnc3c2)CC1	17.3 µM
N#Cc1ccc(-c2ccc3c(c2)[C@H]2[C@H](CCN2S(=O)(=O)c2ccccc2F)[C@@H](CO)N3)cc1	7.82 µM
N#Cc1ccc(-c2ccc3c(c2)[C@H]2[C@H](CCN2S(=O)(=O)c2cccc(F)c2)[C@@H](CO)N3)cc1	4.95 µM
CC(C)N1c2ccccc2C(c2ccc(F)cc2)C1/C=C/C(O)CC(O)CC(=O)O (configuration not stated)	7.59 µM
Cc1ccc([N+](=O)[O-])cc1S(=O)(=O)N(C)C	59.7 µM
COc1cccc2c1C(=O)c1c(O)c3c(c(O)c1C2=O)C[C@@](O)(C(=O)CO)C[C@@H]3O[C@H]1C[C@H](N)[C@H](O)[C@H](C)O1	15.1 µM
